Patent US12403129B2, “Isotope-enriched 3-amino-1-propanesulfonic acid derivatives for the treatment of cerebrovascular disease” (RISEN (SUZHOU) PHARMA TECH CO., LTD., priority 2021, dated 2025)

Legend:
PSD95 = PSD95 expression by Western blotting, multiple cerebral infarction dementia rats; type: in vivo, SD rats; conditions: compared with the model group, p<0.05
Procedure: (§1) 135 SPF grade SD rats (75 females, 60 males, weighing 200-220 g) were used. Anesthesia was performed by intraperitoneal injection of 3.5% chloral hydrate (350 mg/kg). After dorsal fixation, neck hair removal and iodophor disinfection, animals were cut along the middle of the neck to separate the right common carotid artery, external carotid artery and internal carotid artery. […]
(§2) The main pathological indexes included investigation of the improvement of learning and memory impairment in the dementia model animal by test compound using behavioral experimental methods such as Y maze, new object discrimination, Morris water maze and passive avoidance test (dark avoidance); investigation of the protective effect of test compound on mitochondria by detecting the content of ATP in hippocampus and cortex of rats; and investigation of levels of oxidative stress in the rat brain by measuring activity of superoxide dismutase (SOD, which is an oxygen free-radical scavenger), glutathione peroxidase (GSH-Px, which scavenges lipid peroxides induced by reactive oxygen species and —OH), nitric oxide synthase (NOS), malondialdehyde (MDA), and nitric oxide (NO). […] Expression of synaptic associated proteins SYP and PSD95 was detected by Western blotting. […] Experimental results were statistically analyzed using IBM SPSS 21.0 software. […]

MBP [1] = assay: MBP expression in ischemia-reperfusion dementia mice; type: in vivo, C57BL/6J mice; conditions: compared with the model group
Procedure: (§3) 140 healthy C57BL/6J mice, including 70 males and 70 females, were used. 1% Pentobarbital Sodium (50 mg/kg) was injected intraperitoneally to anesthetize the mice. The back position was fixed, the neck hair was removed, and the common carotid arteries were cut along the middle of the neck after iodophor disinfection. The common carotid arteries were separated, clamped with a noninvasive artery clamp for 15 minutes, released for 10 minutes, and then clamped for 10 minutes. Penicillin powder was then applied to suture muscles and skin. The sham operation group was not clamped, and other operations were the same as for the model group. […]
(§4) The main pathological index included: investigation of the improvement of learning and memory impairment by the compound in the pathogenic model of cerebral ischemia-reperfusion using behavioral experimental methods such as Y maze, new object discrimination, spontaneous activity, Morris water maze and passive avoidance experiment (dark avoidance); investigation of the ultrastructure of nerve cells (including nucleus, mitochondria and synapse) by HE staining and immunofluorescence; detection of expression of synaptic associated proteins SYP and PSD95 by Western blotting; and detection of expression of apoptosis-related proteins Bcl-2 and Bax by Western blotting. […] Experimental results were analyzed statistically using IBM SPSS 21.0 software. […]

[2] = tested on: nerve cells (nucleus, mitochondria and synapse); assay: Ultrastructure of nerve cells (transmission electron microscope), multiple cerebral infarction dementia rats; type: in vivo, SD rats; conditions: compared with the model group, p<0.05
Procedure: Compound 4, 120 mg/kg, bid; D. Compound 4, 240 mg/kg, bid; E. Compound 4, 480 mg/kg, bid; F. Donepezil, 0.9 mg/kg.
as §1
The main pathological indexes included investigation of the improvement of learning and memory impairment in the dementia model animal by test compound using behavioral experimental methods such as Y maze, new object discrimination, Morris water maze and passive avoidance test (dark avoidance); investigation of the protective effect of test compound on mitochondria by detecting the content of ATP in hippocampus and cortex of rats; and investigation of levels of oxidative stress in the rat brain by measuring activity of superoxide dismutase (SOD, which is an oxygen free-radical scavenger), glutathione peroxidase (GSH-Px, which scavenges lipid peroxides induced by reactive oxygen species and —OH), nitric oxide synthase (NOS), malondialdehyde (MDA), and nitric oxide (NO). […] Expression of synaptic associated proteins SYP and PSD95 was detected by Western blotting. […]

SYP = SYP expression by Western blotting, multiple cerebral infarction dementia rats; type: in vivo, SD rats; conditions: compared with the model group, p<0.05
Procedure: as §1, §2

MBP [3] = assay: MBP expression, multiple cerebral infarction dementia rats; type: in vivo, SD rats; conditions: compared with the model group, p<0.05
Procedure: as §1, §2

[4] = tested on: neuronal cells in hippocampal CA1 area and CA3 area and cerebral cortex; assay: Neuronal cell morphology in ischemia-reperfusion dementia mice; type: in vivo, C57BL/6J mice; conditions: compared with the model group
Procedure: 140 healthy C57BL/6J mice, including 70 males and 70 females, were used. 1% Pentobarbital Sodium (50 mg/kg) was injected intraperitoneally to anesthetize the mice. The back position was fixed, the neck hair was removed, and the common carotid arteries were cut along the middle of the neck after iodophor disinfection. The common carotid arteries were separated, clamped with a noninvasive artery clamp for 15 minutes, released for 10 minutes, and then clamped for 10 minutes. Penicillin powder was then applied to suture muscles and skin. The sham operation group was not clamped, and other operations were the same as for the model group. […] Mice were divided into 6 groups: sham operation group, model group, positive control group (donepezil) and test compound group (different doses). Test compounds were administered by gavage to each group on the next day of modeling. The compound group was given compounds once a day in the morning and evening, and the volume of each gavage was 10 ml/kg. Half of the animals in the sham operation group and the model group were given the same amount of distilled water, and half of the animals were given the same amount of 1% sodium carboxymethylcellulose solution. […]
as §4

Bax = Bax expression by Western blotting, ischemia-reperfusion dementia mice; type: in vivo, C57BL/6J mice
Procedure: as §3, §4

nitric oxide (NO) = assay: NO concentration in cerebral cortex, multiple cerebral infarction dementia rats; type: in vivo, SD rats; conditions: compared with the model group, p<0.05
Procedure: Compound 4, 120 mg/kg, bid; D. Compound 4, 240 mg/kg, bid; E. Compound 4, 480 mg/kg, bid; F. Donepezil, 0.9 mg/kg. Compared with sham operation group: ### P<0.001; Compared with the model group: ** P<0.01, *** P<0.001.
135 SPF grade SD rats (75 females, 60 males, weighing 200-220 g) were used. Anesthesia was performed by intraperitoneal injection of 3.5% chloral hydrate (350 mg/kg). After dorsal fixation, neck hair removal and iodophor disinfection, animals were cut along the middle of the neck to separate the right common carotid artery, external carotid artery and internal carotid artery. The common carotid artery was temporarily clamped by the artery clamp, the left external carotid artery was retrogradely punctured to the beginning of the left internal carotid artery with a pediatric scalp needle, and then 0.4 ml of embolic normal saline suspension was slowly injected with a syringe (the preparation of embolic normal saline suspension was as follows: blood was collected from the abdominal aorta of the same rat, dried naturally in a 37° C. incubator, and prepared for 80-200 minutes to form a blood clot; during application, 0.3 ml normal saline was added to every 10 mg blood clot), and the common carotid artery clamp was opened at the same time, then the external carotid artery was ligated and the skin was sutured. […]

With [2H]C([2H])(CCS(=O)(=O)O)NC(=O)[C@@H](N)C(C)C [compound 4, 3-((L-valyl)amino)-3,3-dideuterium-1-propanesulfonic Acid] the PSD95 expression (PSD95) was “significantly increased”, the “expression of MBP in hippocampal CA1 area and cerebral cortex” value (MBP [1]) was “increased” and the “ultrastructure of nerve cells” value [2] was “improved”. For the same compound, the SYP expression (SYP) was “significantly increased”, the MBP expression (MBP [3]) was “increased” and the “arrangement and morphology of neuronal cells in hippocampal CA1 area and CA3 area” value [4] was “significantly improved”. For the same compound, the “deep staining pyknosis of nuclei in cerebral cortex” value [4] was “significantly reduced”, the “deep staining pyknosis of nuclei” value ([4]; hippocampal CA1 and CA3 area) was “significantly reduced” and the “Bax expression, p compared with model group” value (Bax; Test group vs model group, n = 15-17, dose not stated) was “p < 0.01”. For the same compound, the “expression of Bax” value (Bax; compared with the model group) was “reduced” and the NO content (nitric oxide (NO)) was “significantly reduced”.
